In patent US9278958B2, “Anti-cancer compounds” (KATHOLIEKE UNIVERSITEIT LEUVEN, priority 2012, dated 2016):
Where two headings read alike, the source gives them in different places.

Key:
CEM cells = test: Cytostatic assay, CEM; type: cell-based; conditions: Homo sapiens, CCRF-CEM
Procedure, shortened: (§1)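 Cells (5-7.5×10^4/well) + test compound; growth 48–96 h (line-dependent), 37° C, humidified CO2 atmosphere; endpoint Coulter count.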

Molt4/C8 cells = test: Cytostatic assay, Molt4/C8; type: cell-based; conditions: Table 2
Procedure, shortened: as §1

Sup T1 cells = test: Cytostatic assay, Sup T1; type: cell-based; conditions: Homo sapiens, Table 2, read-out: Cytostatic activity (μM) Sup T 1
Procedure, shortened: as §1

MT-2 cells = test: Cytostatic assay, MT-2; type: cell-based; conditions: Homo sapiens, MT2; Table 2
Procedure, shortened: as §1

C8166 cells = test: Cytostatic assay, C8166; type: cell-based; conditions: Homo sapiens, Table 2
Procedure, shortened: as §1

HUT-78 cells = test: Cytostatic assay, HUT-78; type: cell-based; conditions: Homo sapiens, HuT78; Table 2
Procedure, shortened: as §1

MT-4 cells = test: Cytostatic assay, MT-4; type: cell-based; conditions: Homo sapiens, MT4; Table 2
Procedure, shortened: as §1

[1] = system: HL60, human leukemia cells; test: Cytostatic assay, HL-60; type: cell-based; conditions: Table 2
Procedure, shortened: as §1

[2] = system: U937, human monocytic cells; test: Cytostatic assay, U937; type: cell-based; conditions: U-937, Table 2
Procedure, shortened: as §1

[3] = system: THP-1, human monocytic cells; test: Cytostatic assay, THP-1; type: cell-based; conditions: Table 2
Procedure, shortened: as §1

[4] = system: Raji, human B-lymphoma cells; test: Cytostatic assay, Raji; type: cell-based; conditions: Table 2
Procedure, shortened: as §1

[5] = system: Daudi, human B-lymphoma cells; test: Cytostatic assay, Daudi; type: cell-based; conditions: Table 2
Protocol: (§2) To each well of a 96-well microtiter plate were added 5-7.5×10^4 cells and a given amount of the test compound. The cells were allowed to proliferate for 48 h to 96 h (depending on the nature of the cell line) at 37° C. in a humidified CO2-controlled atmosphere. At the end of the incubation period, the cells were counted in a Coulter Counter (Coulter Electronics Ltd, Harpenden Herts, United Kingdom).

L1210 cells = test: Cytostatic assay, L1210; type: cell-based; conditions: Mus musculus, Table 2
Procedure, shortened: as §1

[6] = system: HOS CD4+ osteosarcoma cells; test: Cytostatic assay, HOS CD4+; type: cell-based; conditions: Homo sapiens; Table 3
Protocol: as §2

[7] = system: OST TK- osteosarcoma cells; test: Cytostatic assay, OST TK-; type: cell-based; conditions: Homo sapiens; Table 3
Procedure, shortened: as §1

[8] = system: MCF-7 mammary carcinoma cells; test: Cytostatic assay, MCF-7; type: cell-based; conditions: Homo sapiens, MCF7; Table 3
Procedure, shortened: as §1

[9] = system: FM3A mammary carcinoma cells; test: Cytostatic assay, FM3A; type: cell-based, murine; conditions: Mus musculus, Table 3
Procedure, shortened: as §1

[10] = system: HeLa cervix carcinoma cells; test: Cytostatic assay, HeLa; type: cell-based, human; conditions: Homo sapiens; Table 3; read-out: Cytostatic activity (μM) Hela
Procedure, shortened: as §1

[11] = system: Caki-1 kidney carcinoma cells; test: Cytostatic assay, Caki-1; type: cell-based; conditions: Homo sapiens, Table 3
Procedure, shortened: as §1

[12] = system: Caki-2 kidney carcinoma cells; test: Cytostatic assay, Caki-2; type: cell-based; conditions: Homo sapiens, Table 3
Procedure, shortened: as §1

[13] = system: 293T embryonic kidney cells; test: Cytostatic assay, 293T; type: cell-based; conditions: Homo sapiens, HEK-293T; Table 3
Procedure, shortened: as §1

[14] = system: HT29 colorectal carcinoma cells; test: Cytostatic assay, HT29; type: cell-based; conditions: Homo sapiens, HT-29; Table 3
Procedure, shortened: as §1

U87 glioma cells = test: Cytostatic assay, U87; type: cell-based; conditions: Homo sapiens, U-87 MG; Table 3
Procedure, shortened: as §1

[15] = system: U87 CD4+/CXCR4+/CCR5+ glioma cells; test: Cytostatic assay, U87 CD4+/CXCR4+/CCR5+; type: cell-based; conditions: Homo sapiens, Glioma cell; Table 3
Protocol: as §2

[16] = system: HEL embryonic lung fibroblast cells; test: Cytostatic assay, HEL; type: cell-based; conditions: Homo sapiens, Table 3
Procedure, shortened: as §1

[17] = system: BAEC aortic endothelial cells; test: Cytostatic assay, BAEC; type: cell-based, bovine; conditions: Bos taurus, Table 3
Procedure, shortened: as §1

[18] = system: PC3 (rega) prostate cancer cells; test: Cytostatic assay, PC3 (rega); type: cell-based; conditions: Table 4
Procedure, shortened: as §1

BPH-1 (UZ) = test: Cytostatic assay, BPH-1 (UZ); type: cell-based; conditions: Homo sapiens, Table 4
Procedure, shortened: as §1

[19] = system: DU145 (UZ) prostate cancer cells; test: Cytostatic assay, DU145 (UZ); type: cell-based; conditions: Homo sapiens, DU-145; Table 4
Procedure, shortened: as §1

[20] = system: PC-3 (UZ) prostate cancer cells; test: Cytostatic assay, PC-3 (UZ); type: cell-based; conditions: Table 4
Procedure, shortened: as §1

[21] = system: LNCaP (UZ) prostate cancer cells; test: Cytostatic assay, LNCaP (UZ); type: cell-based; conditions: Homo sapiens, Table 4
Procedure, shortened: as §1

[22] = system: PNT1A (UZ) prostate cells; test: Cytostatic assay, PNT1A (UZ); type: cell-based; conditions: Homo sapiens, Table 4
Procedure, shortened: as §1

[23] = system: 22Rv1 (UZ) prostate cancer cells; test: Cytostatic assay, 22Rv1 (UZ); type: cell-based; conditions: Homo sapiens, Table 4
Procedure, shortened: as §1

PLC/PRF/5 hepatoma cells = test: Cytostatic assay, PLC/PRF/5; type: cell-based; conditions: Homo sapiens, Table 4
Procedure, shortened: as §1

HepG2C3A hepatoma cells = test: Cytostatic assay, HepG2C3A; type: cell-based; conditions: Homo sapiens, HepG2/C3A; Table 4
Procedure, shortened: as §1

Huh-7 hepatoma cells = test: Cytostatic assay, Huh-7; type: cell-based; conditions: Homo sapiens, Table 4
Procedure, shortened: as §1

[24] = system: DNA synthesis in CEM cells; test: Antimetabolic activity assay, [CH3-3H]dThd incorporation (DNA synthesis), CEM; type: cell-based; conditions: Homo sapiens, CCRF-CEM, incorporation into TCA-insoluble material
Protocol: (§3) Radiolabeled precursors of DNA synthesis ([^3H-methyl]dThd), RNA synthesis ([5-^3H]Urd), and protein synthesis ([4,5-^3H]leu) were added to 10^5 CEM cell cultures in the 200 μl-wells of a microtiter plate at 1 μCi for each precursor in the presence of varying concentrations of the test compounds (5-fold dilution series). The cells were allowed to proliferate for 20 hrs at 37° C. in a humidified, CO2-controlled atmosphere. At the end of the incubation period, the contents of the wells were brought onto 25-mm glass fiber filters and further processed for measurement of acid-insoluble radioactivity.

[25] = system: DNA synthesis in Raji cells; test: Antimetabolic activity assay, [CH3-3H]dThd incorporation (DNA synthesis), Raji; type: cell-based; conditions: Homo sapiens, incorporation into TCA-insoluble material
Protocol: [The procedure below names another cell line; the source lists this cell line under the same test.] as §3

[26] = system: RNA synthesis in CEM cells; test: Antimetabolic activity assay, [5-3H]uridine incorporation (RNA synthesis), CEM; type: cell-based; conditions: Homo sapiens, CCRF-CEM, incorporation into TCA-insoluble material
Protocol: as §3

[27] = system: RNA synthesis in Raji cells; test: Antimetabolic activity assay, [5-3H]uridine incorporation (RNA synthesis), Raji; type: cell-based; conditions: Homo sapiens, incorporation into TCA-insoluble material
Protocol: [The procedure below names another cell line; the source lists this cell line under the same test.] as §3

[28] = system: protein synthesis in CEM cells; test: Antimetabolic activity assay, [4,5-3H]leucine incorporation (protein synthesis), CEM; type: cell-based; conditions: Homo sapiens, CCRF-CEM, incorporation into TCA-insoluble material
Protocol: as §3

[29] = system: protein synthesis in Raji cells; test: Antimetabolic activity assay, [4,5-3H]leucine incorporation (protein synthesis), Raji; type: cell-based; conditions: Homo sapiens, incorporation into TCA-insoluble material
Protocol: [The procedure below names another cell line; the source lists this cell line under the same test.] as §3

[30] = system: broad variety of tumor cell lines; test: Cytostatic assays, summary over the panel of cell lines (Tables 2-4); type: cell-based
Protocol: as §2

[31] = Table 2, read-out: Cytostatic activity (μM) CEM
[32] = Homo sapiens, HuT78, range for the seven compounds, MT-4 and HUT-78 cells, read-out: IC50 range, cytostatic activity against MT-4 and HUT-78 cells
[33] = range for the seven compounds against the 5 tumor cell lines, read-out: IC50 range, cytostatic activity against CEM, Molt4/C8, Sup T1, MT-2 and C8166 cells

In the case of `COC(=O)c1cc(CCc2ccsc2)sc1N` [TR595, 2-Amino-5-(2-thiophen-3-yl-ethyl)-thiophene-3-carboxylic acid methyl ester], the IC50 (CEM cells; Table 1a, read-out: IC50 μM (CEM)) is reported as 1.7 µM, the IC50 (CEM cells; [31]) is reported as 1.7 ± 1.1 µM and the IC50 (Molt4/C8 cells) is reported as 0.56 ± 0.57 µM. For the same compound, the IC50 (Sup T1 cells) was 1.3 ± 0.21 µM, the IC50 (MT-2 cells) was 0.57 ± 0.078 µM and the IC50 (C8166 cells) was 2.2 ± 0.35 µM. It also gave an IC50 (HUT-78 cells) of 38 ± 8.5 µM, an IC50 (MT-4 cells) of 30 ± 4.9 µM and an IC50 [1] of 6.1 ± 8.6 µM. For the same compound, the IC50 [2] was 42 ± 3.5 µM, the IC50 [3] was 41 ± 2.8 µM and the IC50 [4] was 46 ± 1.4 µM. For the same compound, the IC50 [5] was 37 ± 3.5 µM, the IC50 (L1210 cells) was 41 ± 2 µM and the IC50 [6] was 50 ± 12 µM. For the same compound, the IC50 [7] was 8.2 ± 6.9 µM, the IC50 [8] was 25 ± 11 µM and the IC50 [9] was 50 ± 2.8 µM. For the same compound, the IC50 [10] was 36 ± 7 µM, the IC50 [11] was 2.3 ± 0.14 µM and the IC50 [12] was 45 ± 7.1 µM. For the same compound, the IC50 [13] was 44 ± 5.7 µM, the IC50 [14] was 30 ± 5.7 µM and the IC50 (U87 glioma cells) was 51 ± 2.1 µM. It also gave an IC50 [15] of 51 ± 4.9 µM, an IC50 [16] of 30 ± 13 µM and an IC50 [17] of 27 ± 7.1 µM. The IC50 [18] was 0.25 ± 0.27 µM, the IC50 (BPH-1 (UZ)) was 46 ± 4.9 µM and the IC50 [19] was 15 ± 8.5 µM. For the same compound, the IC50 [20] was 0.6 ± 0.071 µM, the IC50 [21] was 0.38 ± 0.1 µM and the IC50 [22] was 40 ± 7.1 µM. For the same compound, the IC50 [23] was 22 ± 9.2 µM, the IC50 (PLC/PRF/5 hepatoma cells) was 28 ± 2.8 µM and the IC50 (HepG2C3A hepatoma cells) was 8.1 ± 0.71 µM. For the same compound, the IC50 (Huh-7 hepatoma cells) was 1.3 ± 0.28 µM, the IC50 [24] was 3.2 ± 1.2 µM and the IC50 [25] was 39 ± 33 µM. For the same compound, the IC50 [26] was 1.9 ± 0.7 µM, the IC50 [27] was 27 ± 14 µM and the IC50 [28] was 0.66 ± 0.13 µM. It also gave an IC50 [29] of 43 ± 7 µM, an IC50 [30, 32] of 8.5 to 60 µM and an IC50 [30, 33] of 0.22 to 3.4 µM.

For `CCOC(=O)c1cc(CCc2ccc(OC)cc2)sc1N` [TR532, 2-Amino-5-[2-(4-methoxy-phenyl)-ethyl]-thiophene-3-carboxylic acid ethyl ester], the IC50 (CEM cells; [31]) was 1.9 ± 0.99 µM, the IC50 (Molt4/C8 cells) was 0.34 µM and the IC50 (Sup T1 cells) was 1.5 ± 0.071 µM. It also gave an IC50 (MT-2 cells) of 1.7 ± 0.14 µM, an IC50 (C8166 cells) of 3.4 ± 0.071 µM and an IC50 (HUT-78 cells) of 22 ± 9.2 µM. For the same compound, the IC50 (MT-4 cells) was 8.5 ± 0.92 µM, the IC50 [1] was 7 ± 8.7 µM and the IC50 [2] was 43 ± 1.4 µM. The IC50 [3] was 23 ± 3.5 µM, the IC50 [4] was 39 ± 2.8 µM and the IC50 [5] was 43 ± 2.1 µM. It also gave an IC50 [6] of 25 ± 5.7 µM, an IC50 [7] of 5.4 ± 3.3 µM and an IC50 [8] of 36 ± 5.7 µM. For the same compound, the IC50 [9] was 46 ± 6 µM, the IC50 [10] was 39 µM and the IC50 [11] was 4.6 ± 2.1 µM. The IC50 [12] was 66 ± 37 µM, the IC50 [13] was 41 ± 0.71 µM and the IC50 [14] was 27 ± 13 µM. For the same compound, the IC50 (U87 glioma cells) was 38 ± 1.4 µM, the IC50 [15] was 37 ± 9.9 µM and the IC50 [16] was 20 ± 8.5 µM. It also gave an IC50 [17] of 23 ± 0.71 µM, an IC50 [18] of 0.67 ± 0.14 µM and an IC50 (BPH-1 (UZ)) of 43 ± 2.8 µM. For the same compound, the IC50 [19] was 8.4 ± 1.6 µM, the IC50 [20] was 1.1 ± 0.49 µM and the IC50 [21] was 0.34 ± 0.05 µM. The IC50 [22] was 37 ± 9.9 µM, the IC50 [23] was 15 ± 7.9 µM and the IC50 (PLC/PRF/5 hepatoma cells) was 24 ± 2.1 µM. For the same compound, the IC50 (HepG2C3A hepatoma cells) was 6.7 ± 0.35 µM, the IC50 (Huh-7 hepatoma cells) was 1.6 ± 0.14 µM and the IC50 [24] was 11 ± 4 µM. For the same compound, the IC50 [25] was over 100 µM, the IC50 [26] was 3 ± 0.1 µM and the IC50 [27] was over 100 µM. It also gave an IC50 [28] of 1.6 ± 1.1 µM, an IC50 [29] of at least 100 µM and an IC50 [30, 32] of 8.5 to 60 µM. It also gave an IC50 [30, 33] of 0.22 to 3.4 µM.
